In patent publication US20050118226A1, “Methods for treating ACAT-related diseases” (priority 2003, published 2005):
“Also recorded” adds a separate entry of the source.

Assays:
ACAT = assay: Cholesterol determinations in non-transgenic mice given 21 day-release CP-113,818 pellets; format: in vivo; conditions: 21 days
Text: hAPP transgenic mice overexpress human APP751 with the London (V717I) and Swedish (K670M/N671L) mutations under the regulatory control of the neuron specific murine (m)Thy-1 promoter (mThy-1-hAPP751; heterozygous with respect to the transgene, on a C57BL/6 F3 background) (Rockenstein et al., 2001). The hAPP colony was sustained by crossing transgenic APP751 with C57BL/6 (Harlan Winkelman, Germany). Corresponding littermates were used for control studies. All mice were housed according to standard animal care protocols, fed ad libitum with standard chow diet, and maintained in a pathogen-free environment in single ventilated cages at JSW Research. The transgenic status of each animal was confirmed by real time PCR of tail snips using specific primers and the appropriate hybridization probe. A modified Irvine test was regularly performed prior to the experiment to assess the neurological status of the animals; those showing disturbances were excluded from the experiments. Mice were then randomly assigned to different treatment groups and individually coded. Investigators performing behavioral testing, biochemical analyzes and histomorphological evaluations of the brains were blinded in terms of group allocation of the mice. CP-113,818, a potent inhibitor of both ACAT1 and ACAT2 (Chang et al., 2000), was graciously provided by Dr. James Harwood, Pfizer (Groton, Conn.). The drug was compounded in release pellets for continuous dosing by Innovative Research of America (Sarasota, Fla.). Only the test compound, but not carrier biopolymers and substances in the pellets, are released into the bloodstream. Pellets were generated to provide either 21 day or 60 days of continuous drug delivery. For implantation of pellets, animals were anesthized with isofluorance. Then, sterile pellets containing either CP-113,818 or placebo were implanted subcutaneously along the anterolateral aspect of the left shoulder with a special precision trocar in accordance with the suppliers instructions.
Tissues were homogenized in the presence of trypsin (10 mg/ml) in a Dounce homogenizer on ice. Protein concentration of the homogenate was determined using the BCA protein assay kit (Pierce). The tissue homogenate was extracted in chloroform:methanol (2:1, v/v) overnight. Before drying the chloroform phase, polyoxyethylene-9-lauryl ether (Sigma; 5 μl/ml of extract) was added. Dried lipid pellets were dissolved in water and total amount of cholesterol was determined with an enzymatic assay (Sigma; cat. no. 402-20). As control, free cholesterol was determined with a different enzymatic assay (R-Biopharm GmbH, Darmstadt, Germany; cat. no. E0139050). The amount of cholesteryl-esters was calculated by subtracting free from total cholesterol. Finally, the values were normalized to protein concentration of the tissue homogenate and expressed in mg of cholesterol per g of protein.
CP-113,818 is a fatty-acid anilide derivative designed to mimic the acyl-CoA substrate of ACAT and a potent ACAT inhibitor in vitro, cell culture, and animals (Chang et al., 2000; Marzetta et al., 1994; Puglielli et al., 2001). In order to determine the in vivo efficacy of CP-113,818 in reducing mouse brain cholesteryl-ester levels, we initially treated non-transgenic animals with the ACAT inhibitor. Most ACAT inhibitors are poorly absorbed when administered orally, and are quickly turned over in the blood or tissues (Marzetta et al., 1994). […]

synaptophysin = assay: Synaptophysin immunoreactivity in hippocampal CA1 region; format: in vivo, mouse; conditions: CA1 layer of hippocampus, hAPP mice, vs placebo
Experimental: For histomorphological analyses, 8 to 15 histological sections (10 μm) were prepared from one hemisphere of 12 animals (6 placebo, 6 CP-113,818; 3 male, 3 female per group). Number and surface area of amyloid plaques were evaluated in both cortex and hippocampus. 6E10 (Signet; 1:5000; monoclonal) as primary antibody, and Cy™3 fluorescent goat anti-mouse IgG as secondary antibody (Jackson Immuno Research) were used for Aβ staining. Sections of the same brains were also used for synaptophysin staining (Chemicon; 1:5000; monoclonal). Synaptophysin immunoreactive spots were counted by light microscopy in the hippocampal CA1 region. The estimation of immunohistochemical reactions was done by computer-assisted quantification (IMAGE PRO PLUS, Media Cybernetics).

[1] = rat, in vivo; cited from earlier work
[2] = 7.1 mg/kg/day, subcutaneous pellet, vs placebo

Structure (SMILES): CCCCCCCC[C@H](SCCCCCC)C(=O)Nc1c(SC)cc(C)nc1SC [CP-113,818]
- effect on food consumption and body weight (ACAT; 7.1 mg/kg per day): absence of any evident effect
- reduction of cholesteryl-ester levels in the brain (ACAT; [2]): 86%
- reduction of total cholesterol in the serum (ACAT; [2]): 29%
- decrease of free or membrane cholesterol in the liver (ACAT; 0.2-7.1 mg/kg/day, dose-dependent): up to 37%
- effect on free cholesterol levels in the brain (ACAT): no effect
- synaptic density as synaptophysin immunoreactivity (synaptophysin): did not induce significant changes; also recorded: unchanged
- tolerated dose [1]: 150 mg/kg per day
